We go through three compounds from ChEMBL document CHEMBL3621061 (J Med Chem, 2015).

A short description of experiment [1]: Displacement of [3H]histamine from monkey recombinant histamine H4 receptor. More on the design: species or system Macaca mulatta. (In a radioligand displacement assay an active substance lowers the binding of a labelled ligand.)
A short description of experiment [2]: Displacement of [3H]histamine from dog recombinant histamine H4 receptor. Set-up: species or system Canis lupus familiaris.
The nature of experiment [3]: Displacement of [3H]histamine from dog histamine H4 receptor expressed in HEK293T cells. In kind it is cell-based, Canis lupus familiaris. The note with it: hek-293t.
Experiment [4] is described as follows: Displacement of [3H]histamine from monkey histamine H4 receptor expressed in HEK293T cells. In kind it is cell-based, Macaca mulatta. The note with it: hek-293t.
A further experiment concerns the target T1, Histamine H4 receptor (Cavia porcellus, UniProt Q91ZY3).
T1 sequence (Q91ZY3 whole entry): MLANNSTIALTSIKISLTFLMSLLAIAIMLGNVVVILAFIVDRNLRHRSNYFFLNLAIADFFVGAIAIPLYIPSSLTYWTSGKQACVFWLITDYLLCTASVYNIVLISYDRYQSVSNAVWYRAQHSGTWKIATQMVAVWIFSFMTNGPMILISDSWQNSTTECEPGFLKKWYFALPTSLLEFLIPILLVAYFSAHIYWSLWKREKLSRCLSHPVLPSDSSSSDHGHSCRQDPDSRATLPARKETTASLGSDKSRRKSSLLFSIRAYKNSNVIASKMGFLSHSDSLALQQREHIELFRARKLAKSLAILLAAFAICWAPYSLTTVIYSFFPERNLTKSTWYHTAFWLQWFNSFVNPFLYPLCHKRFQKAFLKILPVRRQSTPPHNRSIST

By Ki is commonly meant a dissociation constant, usually derived from enzyme kinetics or from competition with a known ligand. On to `CC(C)c1cc(N2CC[C@@H](N)C2)nc(N)n1` [JNJ-39758979], for which the Ki in experiment [1] is 0.025 µM; in experiment [2], more than 10 µM. A word on the pKi: it is −log10 of the Ki, conventionally taken in molar units. Regarding `CN[C@@H]1CCN(c2cc(NCC3CC3)nc(N)n2)C1` [ADRIFORANT], the negative logarithm of the Ki (pKi) in experiment [3] is given as 5.79; in experiment [4], 7.81. `NCCc1c[nH]cn1` [HISTAMINE]: affinity at Histamine H4 receptor was put at a Ki of 0.006 µM.
